Data on twelve compounds can be found in ChEMBL document CHEMBL4346712, “Research progress in the biological activities of 3,4,5-trimethoxycinnamic acid (TMCA) derivatives” (Eur J Med Chem, 2019).

≈ marks a conversion by molar mass, not a printed value.

The test system of one data set is Candida tropicalis. The experiment in a line: Antifungal activity against Candida tropicalis ATCC 750 after 24 hrs by CLSI broth microdilution method. It is filed as functional, organism-based. Particulars: ATCC 750, 24 h.
The next data set concerns Pichia kudriavzevii. Briefly: Antifungal activity against Candida krusei ATCC 6258 after 24 hrs by CLSI broth microdilution method. The format is functional, organism-based. As to conditions: ATCC 6258, 24 h.
Data set [1] in a line: Cytotoxicity against BHK21 cells assessed as reduction in cell viability after 48 hrs by MTT assay. It is filed as cell-based, Mesocricetus auratus, BHK-21. Particulars: hamster.
Data set [2] is described as follows: Selectivity index, ratio of CC50 for BHK21 cells to IC50 for Candida tropicalis ATCC 750. It is filed as toxicity. Particulars: hamster, read-out: Ratio CC50/IC50.
Data set [3] in a line: Selectivity index, ratio of CC50 for BHK21 cells to IC50 for Candida krusei ATCC 6258. It is filed as toxicity. Particulars: hamster, read-out: Ratio CC50/IC50.
Data set [4] has as its target T1, Bifunctional epoxide hydrolase 2 (Homo sapiens, UniProt P34913).
T1 sequence (P34913 whole entry): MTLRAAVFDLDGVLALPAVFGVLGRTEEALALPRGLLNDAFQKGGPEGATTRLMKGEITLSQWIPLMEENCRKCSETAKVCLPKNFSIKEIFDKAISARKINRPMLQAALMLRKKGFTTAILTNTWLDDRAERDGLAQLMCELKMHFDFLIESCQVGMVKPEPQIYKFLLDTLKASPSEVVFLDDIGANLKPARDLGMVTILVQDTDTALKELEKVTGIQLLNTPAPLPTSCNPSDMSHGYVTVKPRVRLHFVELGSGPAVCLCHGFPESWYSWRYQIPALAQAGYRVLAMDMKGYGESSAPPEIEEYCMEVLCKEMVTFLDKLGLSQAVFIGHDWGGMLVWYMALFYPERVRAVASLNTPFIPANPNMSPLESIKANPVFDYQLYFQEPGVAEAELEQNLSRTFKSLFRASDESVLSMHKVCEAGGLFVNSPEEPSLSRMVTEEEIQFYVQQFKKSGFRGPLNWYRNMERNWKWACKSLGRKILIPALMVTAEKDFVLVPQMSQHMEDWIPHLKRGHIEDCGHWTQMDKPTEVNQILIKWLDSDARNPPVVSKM
Briefly: Competitive inhibition of soluble epoxide hydrolase (unknown origin).

Data set [5] deals with T2, Bifunctional epoxide hydrolase 2 (Homo sapiens) (UniProt P34913).
T2 sequence (whole entry): T1 sequence (P34913 whole entry)
Briefly: Competitive inhibition of soluble epoxide hydrolase (unknown origin) at 100 uM relative to control.

Data set [6] concerns the target 5-hydroxytryptamine receptor 6 (Homo sapiens, UniProt P50406). Briefly: Displacement of [3H]LSD from human 5-HT6 receptor expressed in CHO-K1 cell membranes after 60 mins.
In data set [7] the target is 5-hydroxytryptamine receptor 7 (Homo sapiens, UniProt P34969). The experiment in a line: Displacement of [3H]LSD from human 5-HT7 receptor expressed in CHO-K1 cell membranes after 60 mins.
For data set [8], the target named is Sodium-dependent serotonin transporter (Homo sapiens, UniProt P31645). Briefly: Displacement of [3H]Imipramine from human 5-HT transporter expressed in HEK-293 cell membranes after 30 mins.
The subject of another data set is Mus musculus. The experiment in a line: Antinarcotic activity in morphine-dependent C57BL/6 mouse assessed as inhibition of naloxone-induced jumping behavior in mouse at 5 mg/kg , ip after 30 mins relative to control. The format is functional. As to conditions: C57BL/6, ip, 0.5 h.
Data set [9] can be described thus: Antioxidant activity assessed as DPPH radical scavenging activity at 50 ug/ml relative to control. It is filed as functional.
A further data set relates to Candida albicans. The experiment in a line: Antifungal activity against Candida albicans ATCC 10231 after 24 hrs by CLSI broth microdilution method. The format is functional, organism-based. Particulars: ATCC 10231, 24 h.
Another data set has as its system Nakaseomyces glabratus. The experiment in a line: Antifungal activity against Candida glabrata ATCC 90030 after 24 hrs by CLSI broth microdilution method. The format is functional, organism-based. As to conditions: ATCC 90030, 24 h.
The subject of a further data set is Candida parapsilosis. The experiment in a line: Antifungal activity against Candida parapsilosis ATCC 22019 after 24 hrs by CLSI broth microdilution method. It is filed as functional, organism-based. As to conditions: Lodderomyces parapsilosis, ATCC 22019, 24 h.
Another data set has as its system Staphylococcus aureus. The experiment in a line: Antibacterial activity against Staphylococcus aureus ATCC 6538 after 24 hrs by CLSI broth microdilution method. The format is functional, organism-based. As to conditions: ATCC 6538, 24 h.
Data set [10] concerns Platelet. Briefly: Antiplatelet activity in rabbit platelet rich plasma assessed as inhibition of collagen-induced platelet aggregation at 300 uM preincubated for 3 mins followed by collagen addition measured after 10 mins relative to control. The format is functional. Particulars: Oryctolagus cuniculus.
Data set [11] concerns Platelet. The experiment in a line: Antiplatelet activity in rabbit platelet rich plasma assessed as inhibition of arachidonic acid-induced platelet aggregation at 300 uM preincubated for 3 mins followed by arachidonic acid addition measured after 10 mins relative to control. It is filed as functional. As to conditions: Oryctolagus cuniculus.
For data set [12], the system named is Platelet. The experiment in a line: Antiplatelet activity in rabbit platelet rich plasma assessed as inhibition of PAF-induced platelet aggregation at 300 uM preincubated for 3 mins followed by PAF addition measured after 10 mins relative to control. The format is functional. Particulars: Oryctolagus cuniculus.
For data set [13], the system named is Platelet. Briefly: Antiplatelet activity in rabbit platelet rich plasma assessed as inhibition of thrombin-induced platelet aggregation at 300 uM preincubated for 3 mins followed by thrombin addition measured after 10 mins relative to control. As to conditions: Oryctolagus cuniculus. It is filed as functional.
Data set [14] in a line: Selectivity index, ratio of CC50 for BHK21 cells to IC50 for Candida albicans ATCC 10231. The format is toxicity. As to conditions: hamster, read-out: Ratio CC50/IC50.
The nature of data set [15]: Selectivity index, ratio of CC50 for BHK21 cells to IC50 for Candida glabrata ATCC 90030. The format is toxicity. As to conditions: hamster, read-out: Ratio CC50/IC50.
The nature of data set [16]: Selectivity index, ratio of CC50 for BHK21 cells to IC50 for Candida parapsilosis ATCC 22019. The format is toxicity. Particulars: hamster, read-out: Ratio CC50/IC50.
The nature of data set [17]: Selectivity index, ratio of CC50 for BHK21 cells to IC50 for Staphylococcus aureus ATCC 6538. The format is toxicity. As to conditions: hamster, read-out: Ratio CC50/IC50.
The test system of data set [18] is Platelet. The experiment in a line: Antiplatelet activity in rabbit platelet rich plasma assessed as inhibition of collagen-induced platelet aggregation at 150 uM preincubated for 3 mins followed by collagen addition measured after 10 mins relative to control. The format is functional. As to conditions: Oryctolagus cuniculus.
Data set [19] relates to Platelet. Briefly: Antiplatelet activity in rabbit platelet rich plasma assessed as inhibition of arachidonic acid-induced platelet aggregation at 150 uM preincubated for 3 mins followed by arachidonic acid addition measured after 10 mins relative to control. The format is functional. As to conditions: Oryctolagus cuniculus.
In data set [20] the test system is Platelet. Briefly: Antiplatelet activity in rabbit platelet rich plasma assessed as inhibition of PAF-induced platelet aggregation at 150 uM preincubated for 3 mins followed by PAF addition measured after 10 mins relative to control. It is filed as functional. Particulars: Oryctolagus cuniculus.
Another data set deals with EL4. Briefly: Antitumor activity against mouse EL4 cells by MTT assay.
The test system of another data set is CPAE. The experiment in a line: Cytotoxic activity against cow CPAE cells by MTT assay. As to conditions: Bos taurus.
The test system of another data set is HepG2 2.2.15. The experiment in a line: Cytotoxicity against human HepG2(2.2.15) cells after 24 hrs by MTT assay. It is filed as functional. As to conditions: HepG2 2.2.15, 24 h.
The subject of data set [21] is Hepatitis B virus. The experiment in a line: Antiviral activity against Hepatitis B virus infected in human HepG2.2.15 cells assessed as reduction in HBsAg secretion by ELISA. It is filed as functional, organism-based.
Data set [22] concerns Hepatitis B virus. Briefly: Antiviral activity against Hepatitis B virus infected in human HepG2.2.15 cells assessed as reduction in HBeAg secretion by ELISA. It is filed as functional, organism-based.
For data set [23], the system named is Platelet. Briefly: Antiplatelet activity in rabbit platelet rich plasma assessed as inhibition of ADP-induced platelet aggregation at 30 ug/ml relative to control. The format is functional. As to conditions: Oryctolagus cuniculus.
For data set [24], the system named is Platelet. The experiment in a line: Antiplatelet activity in rabbit platelet rich plasma assessed as inhibition of PAF-induced platelet aggregation at 50 ug/ml relative to control. The format is functional. As to conditions: Oryctolagus cuniculus.
In data set [25] the target is Platelet-activating factor receptor (Homo sapiens) (UniProt P25105). Briefly: Inhibition of PAF receptor (unknown origin) assessed as reduction in receptor to rabbit platelet binding at 20 ug/ml relative to control.
Data set [26] can be described thus: Cytotoxicity against […] B16 cells. It is filed as functional, cell-based.

Chain of Sodium-dependent serotonin transporter (P31645 whole entry): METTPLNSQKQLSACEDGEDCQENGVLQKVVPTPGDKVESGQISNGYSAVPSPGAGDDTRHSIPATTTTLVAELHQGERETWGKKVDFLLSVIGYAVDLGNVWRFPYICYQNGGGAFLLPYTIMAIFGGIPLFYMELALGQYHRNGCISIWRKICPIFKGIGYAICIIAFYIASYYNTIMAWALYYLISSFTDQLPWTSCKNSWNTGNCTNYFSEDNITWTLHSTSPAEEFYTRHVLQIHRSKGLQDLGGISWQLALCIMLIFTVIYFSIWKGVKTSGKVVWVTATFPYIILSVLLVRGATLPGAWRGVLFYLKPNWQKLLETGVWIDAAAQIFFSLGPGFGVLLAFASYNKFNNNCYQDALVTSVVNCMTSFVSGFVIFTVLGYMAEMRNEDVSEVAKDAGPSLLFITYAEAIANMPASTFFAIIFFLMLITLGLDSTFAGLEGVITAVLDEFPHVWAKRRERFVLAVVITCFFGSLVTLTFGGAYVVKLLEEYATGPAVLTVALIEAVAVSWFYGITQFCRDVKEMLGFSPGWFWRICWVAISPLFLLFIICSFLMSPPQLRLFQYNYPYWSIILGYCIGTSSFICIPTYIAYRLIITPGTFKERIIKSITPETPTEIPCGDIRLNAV
Chain of Platelet-activating factor receptor (Homo sapiens) (P25105 whole entry): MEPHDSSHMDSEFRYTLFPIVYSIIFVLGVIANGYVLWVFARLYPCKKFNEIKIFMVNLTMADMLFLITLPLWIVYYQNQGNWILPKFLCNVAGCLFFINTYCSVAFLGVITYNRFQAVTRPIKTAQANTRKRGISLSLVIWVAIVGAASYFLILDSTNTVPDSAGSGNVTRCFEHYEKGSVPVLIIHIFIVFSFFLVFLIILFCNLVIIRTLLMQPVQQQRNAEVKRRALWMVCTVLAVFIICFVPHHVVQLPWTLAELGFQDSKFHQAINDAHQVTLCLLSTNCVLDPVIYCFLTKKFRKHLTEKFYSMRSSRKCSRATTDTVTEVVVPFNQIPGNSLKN
Chain of 5-hydroxytryptamine receptor 7 (P34969 whole entry): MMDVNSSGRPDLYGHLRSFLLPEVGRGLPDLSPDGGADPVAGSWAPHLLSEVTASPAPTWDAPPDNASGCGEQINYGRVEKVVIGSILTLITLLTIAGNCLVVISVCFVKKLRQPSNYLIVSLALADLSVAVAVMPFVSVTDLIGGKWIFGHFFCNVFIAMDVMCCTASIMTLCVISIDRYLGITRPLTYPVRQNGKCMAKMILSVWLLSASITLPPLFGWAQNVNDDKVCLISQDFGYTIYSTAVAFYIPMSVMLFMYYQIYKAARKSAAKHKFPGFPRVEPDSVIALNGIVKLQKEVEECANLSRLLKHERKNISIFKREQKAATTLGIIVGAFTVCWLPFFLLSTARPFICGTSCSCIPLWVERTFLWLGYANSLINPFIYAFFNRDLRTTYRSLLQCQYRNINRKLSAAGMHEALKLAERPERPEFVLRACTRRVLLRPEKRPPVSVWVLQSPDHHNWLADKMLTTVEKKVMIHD
Chain of 5-hydroxytryptamine receptor 6 (P50406 whole entry): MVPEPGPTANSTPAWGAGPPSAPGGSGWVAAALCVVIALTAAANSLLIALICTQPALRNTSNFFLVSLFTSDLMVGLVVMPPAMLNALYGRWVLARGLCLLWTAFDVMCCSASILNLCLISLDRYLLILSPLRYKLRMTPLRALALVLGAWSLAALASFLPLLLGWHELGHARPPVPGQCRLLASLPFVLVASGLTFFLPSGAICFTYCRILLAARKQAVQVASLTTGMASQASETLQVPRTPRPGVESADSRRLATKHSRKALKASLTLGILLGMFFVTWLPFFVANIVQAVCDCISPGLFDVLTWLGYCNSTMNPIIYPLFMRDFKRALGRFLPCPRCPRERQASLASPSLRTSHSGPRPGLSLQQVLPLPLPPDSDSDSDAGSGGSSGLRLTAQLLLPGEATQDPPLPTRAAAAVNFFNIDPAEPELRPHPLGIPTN

With `COc1cc(/C=C/C(=O)N2CCOCC2)cc(OC)c1OC`, the figures for the half-inhibitory concentration (IC50) in the data set with Candida tropicalis and with Pichia kudriavzevii were 97.7 µM and 48.8 µM, respectively. Also, in data set [1], the CC50 at 48 h was 186 µM. In addition, the results for the selectivity ratio in [2] and in data set [3] were 1.89 and 3.79, respectively.
On to `COc1ccc(C(=O)OC[C@H]2O[C@H](O[C@]3(CO)O[C@H](CO)[C@@H](O)[C@@H]3OC(=O)/C=C/c3cc(OC)c(OC)c(OC)c3)[C@H](O)[C@@H](O)[C@@H]2O)cc1`, for which, in [4], the IC50 was found to be 6.4 µM. In data set [5], this compound showed an inhibition above 100%.
For the compound `CCCCCCCCCCNC(=O)/C=C/c1cc(OC)c(OC)c(OC)c1`, the IC50 in [6] amounted to 5 µM; in [7] it was 5.6 µM; in data set [8], 6.7 µM. The inhibition in vivo at 5 mg/kg in the data set on Mus musculus is 80%.
Regarding `COc1ccc(/C=C/COC(=O)/C=C/c2cc(OC)c(OC)c(OC)c2)cc1`, the inhibition in data set [9] was 18.6%.
Turning to `COc1cc(/C=C/C(=O)N2CCC=CC2=O)cc(OC)c1OC` [PIPLARTINE], the IC50 in the data set on Candida albicans stood at 94.6 µM; in the data set on Pichia kudriavzevii it was 189 µM; in the data set with Nakaseomyces glabratus it was 189 µM; with Candida parapsilosis it was 94.6 µM; with Staphylococcus aureus, 315 µM. The CC50 at 48 h in [1] is 40.1 µM. The inhibition at 300 µM in the data set with Platelet [10] was 100%; in the data set on Platelet [11], 100%; in the data set with Platelet [12], 100%; with Platelet [13], 23.5%. Besides, the selectivity ratio in [14] turned out to be 0.42; in data set [3] it was 0.21; in [15], 0.21; in data set [16], 0.42; in [17], 0.12. Besides, the inhibition at 150 µM in the data set on Platelet [18] was 100%; with Platelet [19] it was 76.4%; in the data set on Platelet [20], 100%.
Consider `COc1cc(/C=C/C(=O)O[C@@H]2CC[C@]3(CO3)[C@@H]([C@@]3(C)O[C@@H]3CC=C(C)C)[C@@H]2OC)cc(OC)c1OC`, for which the half-maximal inhibitory concentration (IC50) in the data set with EL4 came out at 0.15 µg/mL (≈ 0.298 µM); in the data set with CPAE, 0.03 µg/mL (≈ 0.0597 µM).
Compound `COc1cc(/C=C/C(=O)ON=C2C3CC4CC(C3)CC2C4)cc(OC)c1OC` showed a CC50 with HepG2 2.2.15 of 507 µM. In addition, the values for the IC50 in the data set with Hepatitis B virus [21] and in the data set with Hepatitis B virus [22] were 107 µM and 74.8 µM, respectively.
On to `COc1ccc(CCNC(=O)/C=C/c2cc(OC)c(OC)c(OC)c2)cc1`, for which, in the data set with Platelet [23], the inhibition at 30 µg/mL turned out to be 29.1%. Also, the inhibition at 50 µg/mL in the data set with Platelet [24] is 39.3%. For the same compound, the inhibition in [25] stood at 19%.
Consider `COc1cc(/C=C/C(=O)O)cc(OC)c1OC` [SINAPIC ACID METHYL ETHER], for which the IC50 in data set [8] was above 10 µM.
In the case of `COc1cc(/C=C/C(=O)NCCc2ccc(O)cc2)cc(OC)c1OC`, the inhibition at 30 µg/mL with Platelet [23] was determined as 24.4%. Moreover, the inhibition at 50 µg/mL in the data set on Platelet [24] is 28.8%. In data set [25], the inhibition is 12%.
Regarding `COc1cc(/C=C/C(=O)N2CC(C)CC(C)C2)cc(OC)c1OC` (centres undefined), the values for the inhibition at 300 µM with Platelet [10], in the data set on Platelet [11] and in the data set with Platelet [12] were 98.6%, 100% and 94.8%, respectively. Further, the inhibition at 150 µM with Platelet [18] is 97.2%; in the data set with Platelet [19], 100%; with Platelet [20], 56.9%.
On to `COc1cc2oc(=O)cc(COC(=O)/C=C/c3cc(OC)c(OC)c(OC)c3)c2cc1OC`, for which the IC50 in data set [26] came out at 6.74 µg/mL (≈ 14.8 µM).
